US20230265151A1, “GIP/GLP1 CO-AGONIST COMPOUNDS” (priority 2020, published 2023)
Like-named read-outs stand apart in the source and are kept apart here.

Legend:
Assay type in all cases: cell-based
[1] = molecular target: T1, hGIPR (Homo sapiens, UniProt P48546); assay: Functional cAMP formation (HTRF) in HEK-293 clonal cells expressing hGIPR, 0.1% bovine casein, without or with 1.0% human serum albumin; conditions: for Emax: percent of maximal response to GIP(1-42)NH2; for EC50: cAMP, 0.1% bovine casein (no human serum albumin), geometric mean
T1 construct: expressed in transfected cells
T1 sequence (P48546 22-466): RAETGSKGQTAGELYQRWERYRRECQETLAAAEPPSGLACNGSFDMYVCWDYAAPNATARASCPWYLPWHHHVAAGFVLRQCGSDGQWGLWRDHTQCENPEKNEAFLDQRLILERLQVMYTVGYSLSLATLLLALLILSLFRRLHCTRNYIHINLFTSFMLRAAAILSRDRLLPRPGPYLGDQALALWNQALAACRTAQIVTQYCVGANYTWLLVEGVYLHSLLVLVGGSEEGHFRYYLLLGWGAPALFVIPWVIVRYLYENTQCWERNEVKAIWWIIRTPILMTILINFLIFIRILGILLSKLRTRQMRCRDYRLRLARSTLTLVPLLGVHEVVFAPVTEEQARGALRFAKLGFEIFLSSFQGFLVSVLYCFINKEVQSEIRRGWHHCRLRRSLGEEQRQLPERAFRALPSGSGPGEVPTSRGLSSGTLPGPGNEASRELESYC
Summary of the method: (§1)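 Readings of the HTRF 665/620 nm ratio, which falls as cAMP rises, were converted to nM cAMP using a standard curve after 30 min peptide exposure at 37° C.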

[2] = molecular target: hGLP-1R (Homo sapiens, UniProt P43220); assay: Functional cAMP formation (HTRF) in HEK-293 clonal cells expressing hGLP-1R, 0.1% bovine casein, without or with 1.0% human serum albumin; parameters: expressed in transfected cells; conditions: for Emax: percent of maximal response to GLP-1(7-36)NH2; for EC50: cAMP, 0.1% bovine casein (no human serum albumin), geometric mean
hGLP-1R, sequence (P43220 24-463): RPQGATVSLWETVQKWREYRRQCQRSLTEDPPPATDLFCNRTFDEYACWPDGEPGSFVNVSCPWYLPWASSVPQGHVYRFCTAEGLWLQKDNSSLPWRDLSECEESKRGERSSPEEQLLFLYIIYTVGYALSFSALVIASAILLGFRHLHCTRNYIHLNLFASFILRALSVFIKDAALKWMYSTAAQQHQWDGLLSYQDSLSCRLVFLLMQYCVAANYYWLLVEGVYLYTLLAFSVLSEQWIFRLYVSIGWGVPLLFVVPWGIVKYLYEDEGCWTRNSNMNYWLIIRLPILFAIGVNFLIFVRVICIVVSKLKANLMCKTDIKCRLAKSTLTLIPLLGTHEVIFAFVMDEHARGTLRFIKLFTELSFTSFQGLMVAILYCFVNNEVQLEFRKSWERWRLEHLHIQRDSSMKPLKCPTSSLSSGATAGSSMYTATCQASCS
Summary of the method: as §1

[3] = molecular target: T2, hGCGR (Homo sapiens, UniProt P47871); assay: Functional cAMP formation (HTRF) in HEK-293 clonal cells expressing hGCGR, 0.1% bovine casein, without or with 1.0% human serum albumin; conditions: 37° C.
T2 construct: expressed in transfected cells
T2 sequence (P47871 26-477): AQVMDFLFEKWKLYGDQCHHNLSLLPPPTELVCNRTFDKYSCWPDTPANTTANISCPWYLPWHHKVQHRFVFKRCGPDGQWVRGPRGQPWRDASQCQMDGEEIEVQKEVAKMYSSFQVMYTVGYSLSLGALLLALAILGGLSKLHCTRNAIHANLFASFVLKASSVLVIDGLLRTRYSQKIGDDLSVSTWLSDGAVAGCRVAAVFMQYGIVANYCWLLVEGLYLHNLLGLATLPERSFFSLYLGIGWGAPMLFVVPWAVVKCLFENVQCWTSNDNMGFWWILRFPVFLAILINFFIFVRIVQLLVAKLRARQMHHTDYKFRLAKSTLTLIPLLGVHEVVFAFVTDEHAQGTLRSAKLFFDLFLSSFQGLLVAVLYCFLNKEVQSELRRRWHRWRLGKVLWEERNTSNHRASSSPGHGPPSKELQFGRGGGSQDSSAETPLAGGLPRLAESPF
Summary of the method: as §1

[4] = HEK293, read-out: hGIPR Emax, % ± SEM, 0.1% bovine casein and 1.0% human serum albumin, 37° C.
[5] = HEK293, read-out: hGIPR Emax, % ± SEM, cAMP, 37° C., 0.1% bovine casein, arithmetic mean
[6] = hGIPR EC50, nM (SEM, n), 37° C.
[7] = hGLP-1R EC50, nM (SEM, n), 37° C.
[8] = hGCGR EC50, nM (SEM, n), 0.1% bovine casein and 1.0% human serum albumin, geometric mean
[9] = hGCGR EC50, nM (SEM, n), cAMP, 0.1% bovine casein (no human serum albumin), geometric mean
[10] = HEK293, cAMP, 37° C., 0.1% bovine casein and 1.0% human serum albumin, read-out: hGIPR Emax, % ± SEM
[11] = HEK293, cAMP, 37° C., 0.1% bovine casein, arithmetic mean, read-out: hGLP-1R Emax, % ± SEM
[12] = 37° C., read-out: hGLP-1R EC50, nM (SEM, n)
[13] = cAMP, 0.1% bovine casein (no human serum albumin), geometric mean, read-out: hGCGR EC50, nM (SEM, n)
[14] = cAMP, 0.1% bovine casein and 1.0% human serum albumin, geometric mean (SEM, n), read-out: hGCGR EC50, nM (SEM, n)

SMILES	Emax [1, 4] [%]	Emax [1, 5] [%]	EC50 [1, 6] [nM]	Emax ([2]; HEK293, read-out: hGLP-1R Emax, % ± SEM, 0.1% bovine casein and 1.0% human serum albumin, 37° C.) [%]	Emax ([2]; HEK293, read-out: hGLP-1R Emax, % ± SEM, cAMP, 37° C., 0.1% bovine casein, arithmetic mean) [%]	EC50 [2, 7] [nM]	EC50 [3, 8] [nM]	EC50 [3, 9] [nM]	Emax [1, 10] [%]	Emax [2, 11] [%]	EC50 [2, 12] [nM]	EC50 [3, 13] [nM]	EC50 [3, 14] [nM]	EC50 ([1]; 37° C., read-out: hGIPR EC50, nM (SEM, n)) [nM]
CC[C@H](C)[C@H](NC(=O)[C@H](CC(C)C)NC(=O)[C@](C)(Cc1ccc(O)cc1)NC(=O)[C@@H](CCC(=O)O)NC(=O)[C@@H](NC(=O)[C@H](Cc1ccccc1)NC(=O)[C@H](CCCCNC(=O)COCCOCCNC(=O)COCCOCCNC(=O)CC[C@H](NC(=O)CCCCCCCCCOc1ccc(C(=O)O)cc1)C(=O)O)NC(=O)C(C)(C)NC(=O)[C@H](CCC(N)=O)NC(=O)[C@H](C)NC(=O)[C@H](CCCCNC(=O)COCCOCCNC(=O)COCCOCCNC(=O)CC[C@H](NC(=O)CCCCCCCCCOc1ccc(C(=O)O)cc1)C(=O)O)NC(=O)[C@H](CCCN)NC(=O)[C@H](CC(=O)O)NC(=O)[C@H](CC(C)C)NC(=O)[C@](C)(CC(C)C)NC(=O)[C@@H](NC(=O)C(C)(C)NC(=O)[C@@H](NC(=O)[C@H](CC(=O)O)NC(=O)[C@H](CO)NC(=O)[C@@H](NC(=O)[C@](C)(Cc1ccccc1F)NC(=O)[C@@H](NC(=O)CNC(=O)[C@H](CCC(=O)O)NC(=O)C(C)(C)NC(=O)[C@@H](N)Cc1ccc(O)cc1)[C@@H](C)O)[C@@H](C)O)C(C)C)[C@@H](C)CC)[C@@H](C)CC)C(=O)N[C@@H](CCC(=O)O)C(=O)NCC(=O)NCC(=O)N1CCC[C@H]1C(=O)N[C@@H](CO)C(=O)N[C@@H](CO)C(=O)NCC(=O)N[C@@H](C)C(=O)N1CCC[C@H]1C(=O)N1CCC[C@H]1C(=O)N1CCC[C@H]1C(=O)N[C@@H](CO)C(N)=O [Example 319]	92.5	98.1	0.0196	114	100	0.18	> 9950	> 9950	–	–	–	–	–	–
CC[C@H](C)[C@H](NC(=O)[C@H](CC(C)C)NC(=O)[C@](C)(Cc1ccc(O)cc1)NC(=O)[C@@H](CCC(=O)O)NC(=O)[C@@H](NC(=O)[C@H](Cc1ccccc1)NC(=O)[C@H](CCCCNC(=O)COCCOCCNC(=O)COCCOCCNC(=O)CC[C@H](NC(=O)CCCCCCCCCOc1ccc(C(=O)O)cc1)C(=O)O)NC(=O)C(C)(C)NC(=O)[C@H](CCC(N)=O)NC(=O)[C@H](C)NC(=O)[C@H](CCCCNC(=O)COCCOCCNC(=O)COCCOCCNC(=O)CC[C@H](NC(=O)CCCCCCCCCOc1ccc(C(=O)O)cc1)C(=O)O)NC(=O)[C@H](CCCN)NC(=O)[C@H](CC(=O)O)NC(=O)[C@H](CC(C)C)NC(=O)[C@](C)(CC(C)C)NC(=O)[C@@H](NC(=O)[C@H](CO)NC(=O)[C@H](CCc1ccc(O)cc1)NC(=O)[C@H](CC(=O)O)NC(=O)[C@H](CO)NC(=O)[C@@H](NC(=O)[C@](C)(Cc1ccccc1F)NC(=O)[C@@H](NC(=O)CNC(=O)[C@H](CCC(=O)O)NC(=O)C(C)(C)NC(=O)[C@@H](N)Cc1ccc(O)cc1)[C@@H](C)O)[C@@H](C)O)[C@@H](C)CC)[C@@H](C)CC)C(=O)N[C@@H](CCC(=O)O)C(=O)NCC(=O)NCC(=O)N1CCC[C@H]1C(=O)N[C@@H](CO)C(=O)N[C@@H](CO)C(=O)NCC(=O)N[C@@H](C)C(=O)N1CCC[C@H]1C(=O)N1CCC[C@H]1C(=O)N1CCC[C@H]1C(=O)N[C@@H](CO)C(N)=O [Example 320]	84.1	94.2	–	–	–	0.246	> 9950	> 9950	–	–	–	–	–	–
CCCC[C@H](NC(=O)[C@H](CC(=O)O)NC(=O)[C@H](CO)NC(=O)[C@@H](NC(=O)[C@](C)(Cc1ccccc1F)NC(=O)[C@@H](NC(=O)CNC(=O)[C@H](CCC(=O)O)NC(=O)C(C)(C)NC(=O)[C@@H](N)Cc1ccc(O)cc1)[C@@H](C)O)[C@@H](C)O)C(=O)N[C@@H](CO)C(=O)N[C@H](C(=O)N[C@@](C)(CC(C)C)C(=O)N[C@@H](CC(C)C)C(=O)N[C@@H](CC(=O)O)C(=O)N[C@@H](CCCN)C(=O)N[C@@H](CCCCNC(=O)COCCOCCNC(=O)COCCOCCNC(=O)CC[C@H](NC(=O)CCCCCCCCCOc1ccc(C(=O)O)cc1)C(=O)O)C(=O)N[C@@H](C)C(=O)N[C@@H](CCC(N)=O)C(=O)NC(C)(C)C(=O)N[C@@H](CCCCNC(=O)COCCOCCNC(=O)COCCOCCNC(=O)CC[C@H](NC(=O)CCCCCCCCCOc1ccc(C(=O)O)cc1)C(=O)O)C(=O)N[C@@H](Cc1ccccc1)C(=O)N[C@H](C(=O)N[C@H](CCC(=O)O)C(=O)N[C@@](C)(Cc1ccc(O)cc1)C(=O)N[C@@H](CC(C)C)C(=O)N[C@H](C(=O)N[C@@H](CCC(=O)O)C(=O)NCC(=O)NCC(=O)N1CCC[C@H]1C(=O)N[C@@H](CO)C(=O)N[C@@H](CO)C(=O)NCC(=O)N[C@@H](C)C(=O)N1CCC[C@H]1C(=O)N1CCC[C@H]1C(=O)N1CCC[C@H]1C(=O)N[C@@H](CO)C(N)=O)[C@@H](C)CC)[C@@H](C)CC)[C@@H](C)CC [Example 321]	94.5	–	0.0107	–	–	0.295	> 9950	> 9950	–	–	–	–	–	–
CCCCCCCCCCCC(=O)N[C@@H](CCC(=O)NCCOCCOCC(=O)NCCOCCOCC(=O)NCCCC[C@H](NC(=O)[C@H](CCCN)NC(=O)[C@H](CC(=O)O)NC(=O)[C@H](CC(C)C)NC(=O)[C@](C)(CC(C)C)NC(=O)[C@@H](NC(=O)[C@H](CO)NC(=O)[C@H](CCc1ccc(O)cc1)NC(=O)[C@H](CC(=O)O)NC(=O)[C@H](CO)NC(=O)[C@@H](NC(=O)[C@](C)(Cc1ccccc1F)NC(=O)[C@@H](NC(=O)CNC(=O)[C@H](CCC(=O)O)NC(=O)C(C)(C)NC(=O)[C@@H](N)Cc1ccc(O)cc1)[C@@H](C)O)[C@@H](C)O)[C@@H](C)CC)C(=O)N[C@@H](C)C(=O)N[C@@H](CCC(N)=O)C(=O)NC(C)(C)C(=O)N[C@@H](CCCCNC(=O)COCCOCCNC(=O)COCCOCCNC(=O)CC[C@H](NC(=O)CCCCCCCCCCC)C(=O)O)C(=O)N[C@@H](Cc1ccccc1)C(=O)N[C@H](C(=O)N[C@H](CCC(=O)O)C(=O)N[C@@](C)(Cc1ccc(O)cc1)C(=O)N[C@@H](CC(C)C)C(=O)N[C@H](C(=O)N[C@@H](CCC(=O)O)C(=O)NCC(=O)NCC(=O)N1CCC[C@H]1C(=O)N[C@@H](CO)C(=O)N[C@@H](CO)C(=O)NCC(=O)N[C@@H](C)C(=O)N1CCC[C@H]1C(=O)N1CCC[C@H]1C(=O)N1CCC[C@H]1C(=O)N[C@@H](CO)C(N)=O)[C@@H](C)CC)[C@@H](C)CC)C(=O)O [Example 323]	–	–	–	–	–	–	–	–	92.9	92.6	0.203	> 9950	> 9950	–
CC[C@H](C)[C@H](NC(=O)[C@H](CC(C)C)NC(=O)[C@](C)(Cc1ccc(O)cc1)NC(=O)[C@@H](CCC(=O)O)NC(=O)[C@@H](NC(=O)[C@H](Cc1ccccc1)NC(=O)[C@H](CCC(=O)O)NC(=O)C(C)(C)NC(=O)[C@H](CCC(N)=O)NC(=O)[C@H](C)NC(=O)[C@H](CCCCNC(=O)COCCOCCNC(=O)COCCOCCNC(=O)CC[C@H](NC(=O)CCCCCCCCCCCCC(=O)O)C(=O)O)NC(=O)[C@H](CCCN)NC(=O)[C@H](CC(=O)O)NC(=O)[C@H](CC(C)C)NC(=O)[C@](C)(CC(C)C)NC(=O)[C@@H](NC(=O)C(C)(C)NC(=O)[C@@H](NC(=O)[C@H](CC(=O)O)NC(=O)[C@H](CO)NC(=O)[C@@H](NC(=O)[C@](C)(Cc1ccccc1F)NC(=O)[C@@H](NC(=O)CNC(=O)[C@H](CCC(=O)O)NC(=O)C(C)(C)NC(=O)[C@@H](N)Cc1ccc(O)cc1)[C@@H](C)O)[C@@H](C)O)C(C)C)[C@@H](C)CC)[C@@H](C)CC)C(=O)N[C@@H](CCCCNC(=O)COCCOCCNC(=O)COCCOCCNC(=O)CC[C@H](NC(=O)CCCCCCCCCCCCC(=O)O)C(=O)O)C(=O)NCC(=O)NCC(=O)N1CCC[C@H]1C(=O)N[C@@H](CO)C(=O)N[C@@H](CO)C(=O)NCC(=O)N[C@@H](C)C(=O)N1CCC[C@H]1C(=O)N1CCC[C@H]1C(=O)N1CCC[C@H]1C(=O)N[C@@H](CO)C(N)=O [Example 325]	–	–	–	–	–	–	–	–	94.7	97.8	0.225	> 9950	> 9950	0.0485
